Experimental data reported in patent US11639346B2, “Quinazoline derivatives as modulators of mutant KRAS, HRAS or NRAS” (Araxes Pharma LLC, priority 2017, dated 2023).

Target: T1, KRAS G12C 1-169, his-tagged protein, GDP-loaded (Homo sapiens, UniProt P01116, G12C)
T1 construct: KRAS G12C 1-169, his-tagged protein, GDP-loaded; His tag
Experiment: Biochemical assay: covalent modification of KRAS G12C measured by mass spectrometry
Type: binding
Conditions: after a 10 minute incubation period
Procedure: Test compounds are prepared as 10 mM stock solutions in DMSO (Fisher cat #BP-231-100). KRAS G12C 1-169, his-tagged protein, GDP-loaded is diluted to 2 μM or 0.5 μM in buffer (20 mM Hepes, 150 mM NaCl, 1 mM MgCl2). Compounds are tested for activity as follows:
Compounds are diluted to 50× final test concentration in DMSO in 96-well storage plates. Compound stock solutions are vortexed before use and observed carefully for any sign of precipitation. […] The plate is then resealed with aluminum seal and stored on dry ice until analyzed as described below.
The above described assays are analyzed by mass spectrometry according to one of the following two procedures: […]
After another 30 minute equilibration time, a blank batch (i.e., buffer) is run to ensure equipment is operating properly. […] The method is then run and masses of each individual well recorded. […]
The masses and peak intensities of KRAS G12C protein species are measured using a Dionex RSLCnano system (Thermo Scientific) connected to a Q Exactive Plus mass spectrometer (Thermo Scientific). […]
The mass spectrometer is operated in profile mode at a resolution of 17500, 5 microscans, using 50 msec max injection time and an AGC target of 1×10^6, and a full mass range from 800-1850 m/z is recorded. […]

T1 sequence (P01116 1-169 isoform P01116-2 G12C): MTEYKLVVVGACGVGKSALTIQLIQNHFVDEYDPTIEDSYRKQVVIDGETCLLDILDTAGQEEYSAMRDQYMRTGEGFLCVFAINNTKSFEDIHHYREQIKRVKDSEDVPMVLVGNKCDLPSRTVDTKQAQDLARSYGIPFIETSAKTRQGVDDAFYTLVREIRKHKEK

binding to KRAS G12C (modification percentage): greater than 75%
SMILES: C=CC(=O)N1C[C@H](C)N(c2nc(C3CN(C(C)C)C3)nc3c(F)c(-c4c(O)cccc4F)c(Cl)cc23)C[C@H]1C (atropisomer, axis not shown) [Compound 1, 1-((2R,5S)-4-((S)-6-chloro-8-fluoro-7-(2-fluoro-6-hydroxyphenyl)-2-(1-isopropylazetidin-3-yl)quinazolin-4-yl)-2,5-dimethylpiperazin-1-yl)prop-2-en-1-one]
